Holding throughout (assay type): biochemical
In assay [1] the target is T1, recombinant soluble tissue factor and recombinant human factor VIIa (TF-VIIa) (Homo sapiens, UniProt P08709).
T1 construct: conversion of coagulation factor VII to VIIa by factor Xa; purchased American Diagnostica, Greenwich CT; host or cells: soluble TF made in house in E. coli
The assay can be described thus: TF-VIIa assay (chromogenic substrate hydrolysis). The following applies: reported only as less than or greater than 0.1 uM. Summed up: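 Chromogenic read at OD405, compared with control for percent inhibition. Substrate N-methylsulfonyl-D-phe-gly-arg-p-nitroaniline at 0.4 mM is cleaved by recombinant human VIIa (2 nM) complexed with soluble TF (100 nM). Buffer: pH 8.0 Tris-HCl 50 mM, CaCl2 5 mM, NaCl 100 mM, BSA 0.1%.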

Assay [2] addresses T2, Human factor Xa (Homo sapiens, UniProt P00742).
T2 construct: purchased Enzyme Research Laboratories, South Bend Ind
As to the kind of experiment: Xa assay (chromogenic substrate S-2765). As to conditions: reported only as less than or greater than 30 uM; read-out: Factor Xa (II) IC50. Summed up:
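Chromogenic readout: S-2765 hydrolysis (0.15 mM) by 0.3 nM human FXa was monitored at 405 nm after 60 min at room temperature, with a time-zero background read. Buffer: 50 mM Tris-HCl, pH 8.0, 100 mM NaCl, 0.1% BSA. Inhibition is relative to buffer-only controls.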

In assay [3] the target is T3, Human thrombin (Homo sapiens, UniProt P00734).
T3 construct: converts prothrombin (II) to thrombin (IIa); purchased Calbiochem, La Jolla, Calif
The assay can be described thus: Thrombin assay (chromogenic substrate). As to conditions: reported only as less than or greater than 30 uM; read-out: Thrombin (II) IC50. The method, boiled down: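 Percent inhibition derived by comparing OD405 nm of compound-treated and control samples. Thrombin cleavage of a p-nitroanilide chromogenic substrate provides the signal.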

The subject of assay [4] is Normal human pooled plasma. As to the kind of experiment: Prothrombin time (PT) clotting assay. The following applies: concentration at which prothrombin time is prolonged by 2x normal, reported as less than or greater than 50 uM. The method, boiled down:
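Normal human pooled plasma incubated with 100 uM compound or saline, then thromboplastin (human tissue factor) added and clotting time recorded in a coagulation machine. Compounds exceeding 3× normal PT (11.0 s) are titrated to find the concentration doubling PT.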

The term IC50 denotes the midpoint of a concentration-inhibition curve.

T2 sequence (P00742 235-488 limits assumed): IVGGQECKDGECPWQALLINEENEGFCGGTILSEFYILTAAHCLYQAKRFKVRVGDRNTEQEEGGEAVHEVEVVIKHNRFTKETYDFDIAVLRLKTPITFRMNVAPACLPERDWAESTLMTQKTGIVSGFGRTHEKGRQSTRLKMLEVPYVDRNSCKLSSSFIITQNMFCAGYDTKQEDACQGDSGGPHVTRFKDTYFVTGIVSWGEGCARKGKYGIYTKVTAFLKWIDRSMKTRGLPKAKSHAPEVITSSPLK
T2 sequence (P00742 41-179 limits assumed): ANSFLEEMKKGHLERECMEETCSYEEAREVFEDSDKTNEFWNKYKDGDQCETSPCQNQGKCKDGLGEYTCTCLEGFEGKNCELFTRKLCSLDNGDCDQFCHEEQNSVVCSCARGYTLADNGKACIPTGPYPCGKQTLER
T1 sequence (P08709 213-466 limits assumed): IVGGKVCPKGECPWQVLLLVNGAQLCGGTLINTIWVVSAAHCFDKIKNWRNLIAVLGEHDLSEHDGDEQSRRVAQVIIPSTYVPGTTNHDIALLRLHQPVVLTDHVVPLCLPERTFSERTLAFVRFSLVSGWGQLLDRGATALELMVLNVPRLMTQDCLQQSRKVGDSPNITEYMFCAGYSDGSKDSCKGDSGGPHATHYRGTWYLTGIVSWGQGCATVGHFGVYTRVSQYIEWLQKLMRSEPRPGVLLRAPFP
T1 sequence (P08709 61-212 limits assumed): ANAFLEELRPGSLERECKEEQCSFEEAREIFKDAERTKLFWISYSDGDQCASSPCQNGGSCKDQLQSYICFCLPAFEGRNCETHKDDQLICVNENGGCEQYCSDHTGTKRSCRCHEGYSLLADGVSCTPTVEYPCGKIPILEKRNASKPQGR
T1 sequence (P13726 33-251 partner limits assumed): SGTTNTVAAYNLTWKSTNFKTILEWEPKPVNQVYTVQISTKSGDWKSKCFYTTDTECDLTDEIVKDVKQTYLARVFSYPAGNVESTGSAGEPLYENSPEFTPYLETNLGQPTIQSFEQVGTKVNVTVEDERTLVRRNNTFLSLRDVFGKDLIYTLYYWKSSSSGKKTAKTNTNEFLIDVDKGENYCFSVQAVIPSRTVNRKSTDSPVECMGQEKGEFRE

Regarding `COc1ccc(CNC(=O)c2cc(N)cc(-c3cnc(NC(C)C)c(=O)n3CC(=O)NCc3ccc(C(=N)N)cc3)c2)cc1.O=C(O)C(F)(F)F.O=C(O)C(F)(F)F` [Example 174], the concentration for half-maximal inhibition (IC50) was less than 0.1 µM in assay [1], greater than 30 µM in assay [2] and greater than 30 µM in assay [3]. Further, the “PT (Prothrombin time) 2xPT” value in assay [4] was less than 50.0 µM.

In the case of `CC(=O)Oc1cc(N)cc(-c2cnc(NC(C)C)c(=O)n2CC(=O)NCc2ccc(C(=N)N)cc2)c1.O=C(O)C(F)(F)F` [Example 175], the IC50 in assay [1] was less than 0.1 µM; in assay [2], greater than 30 µM; in assay [3], greater than 30 µM. Also, the “PT (Prothrombin time) 2xPT” value in assay [4] is less than 50.0 µM.

With `CC(C)Nc1ncc(-c2cc(N)cc(C(=O)NCc3ccc(O)cc3)c2)n(CC(=O)NCc2ccc(C(=N)N)cc2)c1=O.O=C(O)C(F)(F)F` [Example 176], the IC50 in assay [1] is less than 0.1 µM; in assay [2], greater than 30 µM; in assay [3], greater than 30 µM. Further, the “PT (Prothrombin time) 2xPT” value in assay [4] was less than 50.0 µM.

For `COc1cccc(CNC(=O)c2cc(N)cc(-c3cnc(NC(C)C)c(=O)n3CC(=O)NCc3ccc(C(=N)N)cc3)c2)c1.O=C(O)C(F)(F)F` [Example 177], the half-maximal inhibitory concentration (IC50) is less than 0.1 µM in assay [1], greater than 30 µM in assay [2] and greater than 30 µM in assay [3]. Moreover, in assay [4], the “PT (Prothrombin time) 2xPT” value is less than 50.0 µM.

In the case of `N=C(N)c1ccc(CNC(=O)Cn2c(-c3cc(N)cc(O)c3)cnc(NC3CC3)c2=O)cc1.O=C(O)C(F)(F)F.O=C(O)C(F)(F)F` [Example 179], the IC50 in assay [1] is less than 0.1 µM; in assay [2], greater than 30 µM; in assay [3], greater than 30 µM. Moreover, the “PT (Prothrombin time) 2xPT” value in assay [4] was less than 50.0 µM.

For `CC(C)Nc1ncc(-c2cc(N)cc(O)c2)n(CC(=O)NCc2ccc(C(=N)N)c(O)c2)c1=O.O=C(O)C(F)(F)F` [Example 181, 2-[6-(3-amino-5-hydroxyphenyl)-3-(isopropylamino)-2-oxopyrazin-1 (2H)-yl]-N-{4-[amino(imino)methyl]-3-hydroxybenzyl}acetamide], the 50% inhibitory concentration (IC50) was greater than 0.1 µM in assay [1], greater than 30 µM in assay [2] and greater than 30 µM in assay [3]. The “PT (Prothrombin time) 2xPT” value in assay [4] is greater than 50.0 µM.

As for `CC[C@@H](C)NC(=O)c1cc(N)cc(-c2cnc(NC(C)C)c(=O)n2CC(=O)NCc2ccc(C(=N)N)cc2OC)c1.O=C(O)C(F)(F)F.O=C(O)C(F)(F)F` [Example 182, 3-amino-5-[1-[2-({4-[amino(imino)methyl]-2-methoxybenzyl}amino)-2-oxoethyl]-5-(isopropylamino)-6-oxo-1,6-dihydropyrazin-2-yl]-N-[(1R)-1-methylpropyl]benzamide], the 50% inhibitory concentration (IC50) was less than 0.1 µM in assay [1], greater than 30 µM in assay [2] and less than 30 µM in assay [3]. Moreover, in assay [4], the “PT (Prothrombin time) 2xPT” value was less than 50.0 µM.

As for `CC[C@@H](C)NC(=O)c1cc(N)cc(-c2cnc(NC(C)C)c(=O)n2CC(=O)NCc2c(F)c(O)c(C(=N)N)c(F)c2F)c1.Cl.Cl` [Example 185, 3-[1-[2-({4-[amino(imino)methyl]-2,3,6-trifluoro-5-hydroxybenzyl}amino)-2-oxoethyl]-5-(isopropylamino)-6-oxo-1,6-dihydropyrazin-2-yl]-N-[(1R)-1-methylpropyl]-5-aminobenzamide Dihydrochloride], the concentration for half-maximal inhibition (IC50) is less than 0.1 µM in assay [1], greater than 30 µM in assay [2] and greater than 30 µM in assay [3]. Also, the “PT (Prothrombin time) 2xPT” value in assay [4] is less than 50.0 µM.

`CC(C)Nc1ncc(-c2cc(N)cc(C(=O)NCc3ccc(F)c(O)c3)c2)n(CC(=O)NCc2ccc(C(=N)N)cc2)c1=O.O=C(O)C(F)(F)F` [Example 186]: the values for the IC50 in assay [1], in assay [2] and in assay [3] were less than 0.1 µM, greater than 30 µM and greater than 30 µM, respectively. For the same molecule, in assay [4], the “PT (Prothrombin time) 2xPT” value is less than 50.0 µM.

In the case of `CCCCOC(=O)c1cc(N)cc(-c2cnc(NC(C)C)c(=O)n2CC(=O)NCc2ccc(C(=N)N)cc2)c1.O=C(O)C(F)(F)F` [Example 187], the concentration for half-maximal inhibition (IC50) in assay [1] is less than 0.1 µM; in assay [2] it was greater than 30 µM; in assay [3], greater than 30 µM. Besides, in assay [4], the “PT (Prothrombin time) 2xPT” value is less than 50.0 µM.

As for `CC[C@H](C)NC(=O)c1cc(N)cc(-c2cnc(N[C@@H](C)C(C)C)c(=O)n2CC(=O)NCc2ccc(C(=N)N)cc2)c1.O=C(O)C(F)(F)F.O=C(O)C(F)(F)F` [Example 190], the half-maximal inhibitory concentration (IC50) in assay [1] was less than 0.1 µM; in assay [2], greater than 30 µM; in assay [3] it was less than 30 µM. Moreover, in assay [4], the “PT (Prothrombin time) 2xPT” value was less than 50.0 µM.

Take `CC[C@H](C)NC(=O)c1cc(N)cc(-c2cnc(N[C@@H](C)CC)c(=O)n2CC(=O)NCc2ccc(C(=N)N)cc2)c1.O=C(O)C(F)(F)F.O=C(O)C(F)(F)F` [Example 191]: the IC50 in assay [1] is less than 0.1 µM; in assay [2], greater than 30 µM; in assay [3], less than 30 µM. For the same molecule, the “PT (Prothrombin time) 2xPT” value in assay [4] was less than 50.0 µM.

As to `CCCNc1ncc(-c2cc(N)cc(C(=O)N[C@@H](C)CC)c2)n(CC(=O)NCc2ccc(C(=N)N)cc2)c1=O.O=C(O)C(F)(F)F.O=C(O)C(F)(F)F` [Example 192], the results for the IC50 in assay [1], in assay [2] and in assay [3] were less than 0.1 µM, greater than 30 µM and less than 30 µM, respectively. In assay [4], the “PT (Prothrombin time) 2xPT” value is less than 50.0 µM.

Take `CC[C@H](C)NC(=O)c1cc(N)cc(-c2cnc(NC(C)C)c(=O)n2CC(=O)NCc2c(O)cc(C(=N)N)cc2O)c1` [Example 193]: the figures for the IC50 in assay [1], in assay [2] and in assay [3] were greater than 0.1 µM, greater than 30 µM and greater than 30 µM, respectively. Also, the “PT (Prothrombin time) 2xPT” value in assay [4] is less than 50.0 µM.

As for `CCNc1ncc(-c2cc(N)cc(C(=O)N[C@@H](C)CC)c2)n(CC(=O)NCc2ccc(C(=N)N)cc2)c1=O.O=C(O)C(F)(F)F.O=C(O)C(F)(F)F` [Example 194], the figures for the IC50 in assay [1], in assay [2] and in assay [3] were less than 0.1 µM, greater than 30 µM and greater than 30 µM, respectively. Also, in assay [4], the “PT (Prothrombin time) 2xPT” value was less than 50.0 µM.

As to `CC[C@H](C)NC(=O)c1cc(N)cc(-c2cnc(NC(C)C)c(=O)n2CC(=O)NCc2c(O)cc(C(=N)N)cc2OC)c1` [Example 195], the concentration for half-maximal inhibition (IC50) in assay [1] was less than 0.1 µM; in assay [2] it was greater than 30 µM; in assay [3], greater than 30 µM. In addition, the “PT (Prothrombin time) 2xPT” value in assay [4] was less than 50.0 µM.

Take `CC[C@@H](C)NC(=O)c1cc(N)cc(-c2cnc(NC(C)C)c(=O)n2CC(=O)NCc2c(O)cc(C(=N)N)cc2OC)c1` [Example 198]: the IC50 is less than 0.1 µM in assay [1], greater than 30 µM in assay [2] and greater than 30 µM in assay [3]. Moreover, in assay [4], the “PT (Prothrombin time) 2xPT” value was less than 50.0 µM.

With `CC[C@@H](C)NC(=O)c1cc(N)cc(-c2cnc(NC(C)C)c(=O)n2CC(=O)NCc2c(O)cc(C(=N)N)cc2O)c1` [Example 199], the figures for the IC50 in assay [1], in assay [2] and in assay [3] were less than 0.1 µM, greater than 30 µM and greater than 30 µM, respectively. The “PT (Prothrombin time) 2xPT” value in assay [4] is less than 50.0 µM.

Regarding `CC[C@H](C)NC(=O)c1cc(N)cc(-c2cnc(N[C@H](C)C(C)C)c(=O)n2CC(=O)NCc2ccc(C(=N)N)cc2)c1.O=C(O)C(F)(F)F.O=C(O)C(F)(F)F` [Example 202], the figures for the concentration for half-maximal inhibition (IC50) in assay [1], in assay [2] and in assay [3] were less than 0.1 µM, greater than 30 µM and less than 30 µM, respectively. The “PT (Prothrombin time) 2xPT” value in assay [4] was less than 50.0 µM.

In the case of `CC[C@@H](C)Nc1ncc(-c2cc(N)cc(C(=O)N[C@@H](C)CC)c2)n(CC(=O)NCc2ccc(C(=N)N)cc2)c1=O.O=C(O)C(F)(F)F.O=C(O)C(F)(F)F` [Example 203], the results for the 50% inhibitory concentration (IC50) in assay [1], in assay [2] and in assay [3] were less than 0.1 µM, greater than 30 µM and less than 30 µM, respectively. Besides, in assay [4], the “PT (Prothrombin time) 2xPT” value was less than 50.0 µM.

For the molecule `N=C(N)c1ccc(CNC(=O)Cn2c(-c3cc(N)cc(C(=O)O)c3)cnc(NC3CC3)c2=O)cc1.O=C(O)C(F)(F)F` [Example 204, 3-amino-5-[1-[2-({4-[amino(imino)methyl]benzyl}amino)-2-oxoethyl]-5-(cyclopropylamino)-6-oxo-1,6-dihydropyrazin-2-yl]benzoic Acid], the results for the 50% inhibitory concentration (IC50) in assay [1], in assay [2] and in assay [3] were less than 0.1 µM, greater than 30 µM and greater than 30 µM, respectively. Besides, in assay [4], the “PT (Prothrombin time) 2xPT” value was less than 50.0 µM.

Turning to `CCOC(=O)c1cc(N)cc(-c2cnc(NC3CC3)c(=O)n2CC(=O)NCc2ccc(C(=N)N)cc2)c1.O=C(O)C(F)(F)F` [Example 207, Ethyl 3-amino-5-[1-[2-({4-[amino(imino)methyl]benzyl}amino)-2-oxoethyl]-5-(cyclopropylamino)-6-oxo-1,6-dihydropyrazin-2-yl]benzoate], the IC50 was less than 0.1 µM in assay [1], greater than 30 µM in assay [2] and greater than 30 µM in assay [3]. The “PT (Prothrombin time) 2xPT” value in assay [4] was less than 50.0 µM.

`CCC(CC)COc1cc(N)cc(-c2cnc(NC(C)C)c(=O)n2CC(=O)NCc2ccc(C(=N)N)cc2)c1.O=C(O)C(F)(F)F.O=C(O)C(F)(F)F` [Example 209]: the concentration for half-maximal inhibition (IC50) in assay [1] was less than 0.1 µM; in assay [2], greater than 30 µM; in assay [3] it was greater than 30 µM. Further, in assay [4], the “PT (Prothrombin time) 2xPT” value turned out to be 50 µM.

For the origin of these results see patent US20040106626A1, “6-Membered unsaturated heterocyclic compounds useful for selective inhibition of the coagulation cascade” (Pharmacia Corporation, priority 2001, published 2004).
